The values below come from publication PMC8560939 (Scientific Reports, 2021).

The target of data set [1] is T1, LDHB (Homo sapiens, UniProt P07195).
T1 construct: purchased R&D Systems
As to the kind of experiment: Substrate-competition assay (varying NADH or pyruvate). The data set is classed as biochemical. To be noted: for Vmax (NADH): NADH titration; for Vmax (Pyruvate): pyruvate titration. On the procedure: To elucidate the underlying inhibitory mechanism, substrate competition assays were performed. LDHB inhibitory activity for AXKO-0046 was assessed at different concentrations of the substrate.
Moreover, the Km and Vmax values for LDHB were determined in the presence AXKO-0046. As the AXKO-0046 concentration increased in the reaction, both Vmax and Km decreased proportionally (Supplementary Fig. 3 and Table 1). The Lineweaver–Burke plot lines were nearly parallel (Fig. 3c,d), indicating uncompetitive inhibition with a strong preference for inhibiting the enzyme–substrate complex.
A solution of AXKO-0046 (0.00001, 0.0001, 0.001, 0.01, 0.1, 1, 10, and 100 μM) with 0.25 nM LDHB was then added. The enzymatic reactions were performed at room temperature for 15 min in triplicate. At each inhibitor concentration, the dependence of the initial reaction velocity on the substrate concentration was fitted to a nonlinear Michaelis–Menten model to obtain the Km and Vmax values using GraphPad Prism. Lineweaver–Burk plots were generated by superimposing the data of 1/[velocity] and 1/[substrate] and the line corresponding to the Michaelis–Menten nonlinear fit.

The target of data set [2] is T1, LDHB. As to the kind of experiment: Time-dependent inhibition (pre-incubation of AXKO-0046 and LDHB). It is filed as biochemical. To be noted: pre-incubation with LDHB up to 120 min. On the procedure: We then assessed whether there was any time dependence to the onset of inhibition by varying the time for which AXKO-0046 and LDHB were pre-incubated before initiating the enzymatic reaction.
Supplementary Figure 4. Time-dependent inhibition of LDHB activity by AXKO-0046. Time-dependent inhibition was measured by pre-incubating AXKO-0046 and LDHB for 0, 30, 60, or 120 min, as indicated, before initiating the LDHB reaction. Data are shown as mean (n = 2).

The target of data set [3] is T1, LDHB. As to the kind of experiment: LDHB enzyme assay by RapidFire-MS (NADH to NAD+ conversion). The data set is classed as biochemical. The conditions noted are these: RF-MS. On the procedure: (§1) To compare the selectivity potency of the 22 selected compounds, we evaluated the compounds against human LDHB and LDHA by RF-MS. […] The Km value was also determined for the LDHA reaction. All EC50 values are listed in Supplementary Table 1.
We screened for compounds (final concentration: 10 μM) within pooled libraries consisting of more than 345,000 compounds. Each compound in DMSO (1 mM) was dispensed into 384-well V base plates (100 nL/well) using an Echo 555 acoustic dispenser (Labcyte, Sunnyvale, CA, USA). LDHB (5 μL) was diluted in assay buffer (20 mM Tris [pH 7.5], containing 2 mM DTT, 0.005% Triton X100, and 0.005% BSA) and dispensed into assay plates (final concentration: 0.25 nM). […] After incubation for 30 min at room temperature, acetonitrile (10 μL) and water (50 μL) were added to quench the reaction. All additions were performed using a Multidrop Combi (Thermo Fisher Scientific, Waltham, MA, USA). Assay plates were sealed and centrifuged (2700× g for 10 min) before storage at − 20 °C.
(§2) For RF-MS (Agilent, Wakefield, MA, USA), the enzyme reaction solution (5 μL) was aspirated directly from the quenched assay plates and loaded onto a C8 solid-phase extraction cartridge (Agilent) with a mobile phase of water containing DHAA (5 mM) for 2500 ms at a flow rate of 1.25 mL/min. The analytes were then co-eluted into the mass spectrometer using water:acetonitrile:acetone (2:1:1) containing ammonium acetate (5 mM) for 5000 ms at a flow rate of 1.0 ml/min. […] The extracted ion chromatograms for each transition were integrated and processed using RapidFire Integrator (Agilent). The data for each well were normalised using the monitoring product conversion with the ratio of AUCproduct / (AUCproduct + AUCsubstrate).
To determine the compound activities, percent inhibition data normalised to 0% (DMSO only) and 100% inhibition (no-enzyme control) wells were calculated. Data analysis was performed using the Tibco Spotfire (Boston, MA, USA) packages.
(§3) The reaction product was measured by RF-MS. To estimate the Km and Vmax values, the initial rates were fit to the Michaelis–Menten equation. EC50 and Hill slope calculation and curve fitting using four-parameter fits were performed using GraphPad Prism v6.07 (GraphPad Software, San Diego, CA, USA) or XLfit (IDBS, Guildford, UK) with nonlinear regression analysis, wherein the EC50 value equaled the concentration at which the inflection point of the fitted model was reached. The quality and robustness of the screening campaign process were determined by analysing the Z’ factor.

Data set [4] can be described thus: Cellular activity. It is filed as cell-based.
Data set [5] has as its target T2, human LDHA (Homo sapiens, UniProt P00338).
T2 construct: purchased R&D Systems
As to the kind of experiment: LDHA enzyme assay by RapidFire-MS. It is filed as biochemical. On the procedure: as §1
These concentrations were chosen based on fitting to the Michaelis–Menten model with the Km values (Supplementary Figure S2).
as §2
To determine the compound activities, percent inhibition data normalised to 0% (DMSO only) and 100% inhibition (no-enzyme control) wells were calculated. […]
The reaction product was measured by RF-MS. […] The quality and robustness of the screening campaign process were determined by analysing the Z’ factor.

Data set [6] has as its system T3, CC(=O)C(=O)O.
T3 construct: purchased R&D Systems
The data set can be described thus: Determination of substrate Km for LDHB (assay optimisation). The conditions noted are these: other: 500 µM NADH, increasing pyruvate. The data set is classed as biochemical, human. On the procedure: Next, we optimised the assay conditions of RF-MS. Titration of human LDHB was examined at concentrations ranging from 0.0625 to 1 nM. […] We used 0.25 nM LDHB throughout assay development and screening to ensure enzyme activation. […] The Km values obtained from the two assays were consistent with the reported values for LDHB[15],[16].
as §3
Data were fitted to the Michaelis–Menten equations to obtain the kinetic constant Km using GraphPad Prism. Data are shown as mean ± standard deviation (n = 4).

Data set [7] concerns NC(=O)C1=CN([C@@H]2O[C@H](COP(=O)(O)OP(=O)(O)OC[C@H]3O[C@@H](n4cnc5c(N)ncnc54)[C@H](O)[C@@H]3O)[C@@H](O)[C@H]2O)C=CC1. The data set can be described thus: purified protein, by the assay type. To be noted: other: 500 μM pyruvate, increasing NADH.
Where [8] appears, read: read-out: EC50 (μM), LDHB inhibitory activity of AXKO-0046 derivatives.

Where two headings read alike, the source gives them in different places.

T1 sequence (P07195 whole entry): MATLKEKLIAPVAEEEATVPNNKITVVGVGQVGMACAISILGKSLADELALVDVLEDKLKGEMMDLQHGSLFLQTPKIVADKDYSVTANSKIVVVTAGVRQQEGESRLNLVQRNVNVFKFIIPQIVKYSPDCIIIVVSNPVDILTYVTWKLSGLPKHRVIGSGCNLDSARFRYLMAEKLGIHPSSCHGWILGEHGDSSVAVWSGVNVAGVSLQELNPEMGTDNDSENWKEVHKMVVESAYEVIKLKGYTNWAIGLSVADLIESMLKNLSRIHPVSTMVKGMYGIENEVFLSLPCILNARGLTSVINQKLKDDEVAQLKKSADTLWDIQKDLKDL

For orientation: IC50 means the concentration needed to halve the response being measured. As usually defined, the EC50 is the concentration at which the effect is half-maximal. As for `c1ccc(CNCCc2c(CNC3CCCCCC3)[nH]c3ccccc23)cc1` [AXKO-0046, N-({3-[2-(benzylamino)ethyl]-1H-indol-2-yl}methyl) cycloheptanamine], the “mode of inhibition with respect to NADH and pyruvate” value in data set [1] is recorded as “uncompetitive with both substrates”. Besides, the “Vmax (NADH)” value in data set [1] (AXKO-0046 0.00001 µM, 100 μM pyruvate) amounted to 10.1 µM/min; in data set [1] (AXKO-0046 0.0001 µM, 100 μM pyruvate), 10.7 µM/min; in data set [1] (AXKO-0046 0.001 µM, 100 μM pyruvate), 9.7 µM/min; in data set [1] (AXKO-0046 0.01 µM, 100 μM pyruvate) it was 8.3 µM/min; in data set [1] (AXKO-0046 0.1 µM, 100 μM pyruvate), 6.0 µM/min; in data set [1] (AXKO-0046 1 µM, 100 μM pyruvate) it was 2.9 µM/min. Also, the “Vmax (NADH)” value in data set [1] (AXKO-0046 10 µM, 100 μM pyruvate) worked out at 2.1 µM/min; in data set [1] (AXKO-0046 100 µM, 100 μM pyruvate), 2.2 µM/min. The “Vmax (Pyruvate)” value in data set [1] (AXKO-0046 0.00001 µM, 100 μM NADH) was determined as 7.3 µM/min; in data set [1] (AXKO-0046 0.0001 µM, 100 μM NADH), 6.9 µM/min; in data set [1] (AXKO-0046 0.001 µM, 100 μM NADH), 6.5 µM/min; in data set [1] (AXKO-0046 0.01 µM, 100 μM NADH), 6.6 µM/min; in data set [1] (AXKO-0046 0.1 µM, 100 μM NADH) it was 4.3 µM/min; in data set [1] (AXKO-0046 1 µM, 100 μM NADH) it was 2.0 µM/min. The “Vmax (Pyruvate)” value in data set [1] (AXKO-0046 10 µM, 100 μM NADH) stood at 1.6 µM/min; in data set [1] (AXKO-0046 100 µM, 100 μM NADH) it was 1.6 µM/min. In addition, the IC50 is 702 nM in data set [1] (NADH 30 μM, 100 μM pyruvate); 330 nM in data set [1] (NADH 50 μM, 100 μM pyruvate); 223 nM in data set [1] (NADH 100 μM, 100 μM pyruvate); 94.2 nM in data set [1] (NADH 200 μM, 100 μM pyruvate); 197 nM in data set [1] (Pyruvate 30 μM, 100 μM NADH); 114 nM in data set [1] (Pyruvate 50 μM, 100 μM NADH). The molecule also displayed an IC50 in data set [1] (Pyruvate 200 μM, 100 μM NADH) of 96.3 nM. In addition, the “inhibition potential with pre-incubation time” value in data set [2] was “did not increase with pre-incubation time”. Also, in data set [3] (four-parameter fit, read-out: EC50 for LDHB), the EC50 is 0.042 µM. For the same molecule, in data set [4], the cellular activity entry is given as “no potent cellular activity”. For the same molecule, the “inhibition of LDHA (concentration response curve)” value in data set [5] was “did not inhibit LDHA”.

In the case of `CN(CCc1c(CN(C)C2CCCCCC2)[nH]c2ccccc12)Cc1ccccc1` [AXKO-0058], the EC50 in data set [3] (setting [8]) came to 8.3 µM.

For the molecule `CN(CCc1c(CNC2CCCCCC2)[nH]c2ccccc12)Cc1ccccc1` [AXKO-0060], the EC50 in data set [3] (setting [8]) stood at 0.25 µM.

In the case of `Cn1c(CNC2CCCCCC2)c(CCNCc2ccccc2)c2ccccc21` [AXKO-0067], the EC50 in data set [3] (setting [8]) was greater than 100 µM.

With `CN(Cc1[nH]c2ccccc2c1CCNCc1ccccc1)C1CCCCCC1` [AXKO-0077], the EC50 in data set [3] (setting [8]) was 7.4 µM.

For orientation: Km means the concentration of substrate that gives half-maximal velocity. Consider human LDHB (Homo sapiens), for which the figures for the Km in data set [6] and in data set [7] were 116 µM and 64 µM, respectively.
